PubChem BioAssay (NCI)
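Results reflect a 48-hour exposure of cells in 96-well plates to compound at five concentrations. TGI marks complete inhibition of growth.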

How the values were obtained:
Experiment in all cases: growth of human tumour cells (NCI), 48 h
[1] = test system: U251 CNS
[2] = test system: SK-OV-3 ovarian
[3] = test system: OVCAR-5 ovarian
[4] = test system: IGROV1 ovarian
[5] = test system: MALME-3M melanoma
[6] = test system: SK-MEL-5 melanoma
[7] = test system: SF-539 CNS
[8] = test system: OVCAR-8 ovarian
[9] = test system: NCI/ADR-RES ovarian
[10] = test system: SF-295 CNS
[11] = test system: CCRF-CEM leukemia

Structure (SMILES)	TGI [1]	TGI [2]	TGI [3]	TGI [4]	TGI [5]	TGI [6]	TGI [7]	TGI [8]	TGI [9]	TGI [10]	TGI [11]
N#Cc1c(N)oc(-c2ccc([N+](=O)[O-])cc2)c1C#N	> 100 µM	> 100 µM	> 100 µM	42.4 µM	95.9 µM	36.4 µM	48.3 µM	52.2 µM	44 µM	55.3 µM	> 100 µM
Clc1cc(-c2ccccc2)nc(Nc2nc3ccccc3[nH]2)n1	30.7 µM	> 100 µM	> 100 µM	33.2 µM	69.1 µM	> 100 µM	> 100 µM	54.2 µM	> 100 µM	> 100 µM	27.6 µM
COC1OCC(O)C(NC(=O)N(C)N=O)C1O (configuration not stated)	> 100 µM	> 100 µM	> 100 µM	> 100 µM	> 100 µM	> 100 µM	> 100 µM	> 100 µM	> 100 µM	> 100 µM	> 100 µM
COC(=O)Nc1nc2ccc(S(=O)(=O)Nc3ccccn3)cc2[nH]1	> 100 µM	> 100 µM	> 100 µM	> 100 µM	> 100 µM	> 100 µM	52.6 µM	> 100 µM	> 100 µM	> 100 µM	54.2 µM
O[C@@H]1C[C@H](Cl)c2c(Cl)sc(Cl)c21	> 100 µM	> 100 µM	> 100 µM	> 100 µM	> 100 µM	> 100 µM	> 100 µM	> 100 µM	> 100 µM	> 100 µM	> 100 µM
c1coc(-c2nccc3c2[nH]c2ccccc23)c1	> 100 µM	> 100 µM	> 100 µM	> 100 µM	> 100 µM	> 100 µM	> 100 µM	> 100 µM	> 100 µM	> 100 µM	> 100 µM
Cn1c2ccc(F)cc2c2ccc3c(c21)C(=O)C=CC3=O	23.9 µM	> 100 µM	> 73.4 µM	39 µM	23.2 µM	56.4 µM	35.8 µM	26.1 µM	59.6 µM	> 100 µM	5.27 µM
CN(C)C(=O)Oc1c(Br)cc(Br)cc1C(=O)OCc1ccccc1	56.2 µM	> 100 µM	> 100 µM	> 100 µM	55.3 µM	17.7 µM	53.4 µM	> 100 µM	51.8 µM	55.7 µM	68.3 µM
Clc1ccc(CCNC2(c3cc4ccccc4s3)CCCCC2)cc1Cl	65.4 µM	> 100 µM	68.1 µM	> 100 µM	36.9 µM	31.7 µM	46.7 µM	> 100 µM	80.8 µM	84.3 µM	31 µM
CC(=O)OCC1OC(n2cnc3nc(Br)[nH]c(=O)c32)C(OC(C)=O)C1OC(C)=O (configuration not stated)	> 100 µM	> 100 µM	> 100 µM	> 100 µM	> 100 µM	> 100 µM	> 100 µM	> 100 µM	> 100 µM	> 100 µM	> 100 µM
CN(C)Cc1c(O)ccc2c1c1c(n2C)C(=O)c2ccccc2C1=O	> 100 µM	> 100 µM	74.4 µM	85.2 µM	15.5 µM	23.1 µM	> 100 µM	> 100 µM	18.3 µM	84.6 µM	> 100 µM
COc1ccccc1NC(=S)N=Nc1c(O)[nH]c2ccccc12	> 100 µM	> 100 µM	> 100 µM	> 100 µM	> 100 µM	> 100 µM	> 100 µM	> 100 µM	> 100 µM	> 100 µM	> 100 µM
O=C1/C(=C/c2ccc(O)cc2)CCCC1CN1CCCCC1 (configuration not stated)	22.3 µM	30.4 µM	30.8 µM	3.8 µM	3.36 µM	17.8 µM	8.45 µM	13.6 µM	29.6 µM	29.9 µM	> 100 µM
Cc1ncc([N+](=O)[O-])n1CC[N+](C)([O-])CCCCn1ccnc1[N+](=O)[O-] (configuration not stated)	> 100 µM	> 100 µM	> 100 µM	> 100 µM	> 100 µM	> 100 µM	> 100 µM	> 100 µM	> 100 µM	> 100 µM	> 100 µM
CC(C)NC(=O)OCc1c(COC(=O)NC(C)C)c(-c2ccc[n+](COC(=O)Cc3ccccc3)c2)n2c1CCC2	> 100 µM	> 100 µM	> 100 µM	> 100 µM	97.2 µM	> 100 µM	> 100 µM	> 100 µM	> 100 µM	> 100 µM	> 100 µM
CC(C)(C)NC1=NC(C(F)(F)F)(C(F)(F)F)NC(=O)N1	> 100 µM	> 100 µM	> 100 µM	> 100 µM	> 100 µM	80.5 µM	> 100 µM	> 100 µM	> 100 µM	> 100 µM	> 100 µM
CC[C@@]1(O)C[C@H](OC2CC(N(C)C)C(O)C(C)O2)c2c(cc3c(c2O)C(=O)c2c(O)ccc(O)c2C3=O)[C@H]1C(=O)OC (some centres not stated)	1.23 µM	2.37 µM	0.836 µM	1.35 µM	0.304 µM	0.461 µM	0.41 µM	0.643 µM	0.619 µM	0.389 µM	0.603 µM
CC(=O)O[C@H]1C(=O)[C@@]2(C)[C@H]([C@H](OC(=O)c3ccccc3)[C@]3(O)C[C@H](OC(=O)[C@H](O)[C@@H](NC(=O)c4ccccc4)c4ccc5ccccc5c4)C(C)=C1C3(C)C)[C@]1(OC(C)=O)CO[C@@H]1C[C@@H]2O	1.46 µM	0.836 µM	2 µM	> 42.3 µM	14.7 µM	12.9 µM	0.152 µM	25.8 µM	> 50 µM	1.89 µM	> 11.2 µM
COC(=O)CNC(=O)C(Cc1ccccc1)NC(=O)c1ccc(-c2ccc(Cl)cc2Cl)o1 (configuration not stated)	> 100 µM	84.2 µM	> 100 µM	> 100 µM	87.4 µM	> 100 µM	> 100 µM	> 100 µM	> 100 µM	64.3 µM	39.5 µM
CC(C)(C)COC(=O)C(C)(C)NC(=O)C(CC(=O)OCc1ccccc1)NC(=O)OCc1ccccc1 (configuration not stated)	> 100 µM	> 100 µM	93.5 µM	> 100 µM	81.3 µM	29.1 µM	> 100 µM	> 100 µM	> 100 µM	> 100 µM	> 100 µM
COc1cc(C2c3cc4c(cc3OC(NNc3ccccc3)C2C)OCO4)cc(OC)c1OC (configuration not stated)	13.2 µM	> 100 µM	> 81 µM	> 100 µM	> 38.5 µM	21 µM	1.67 µM	> 38.1 µM	58.6 µM	5.11 µM	> 27.3 µM
O=C1c2cc(I)ccc2N2CCN=C2N1Cc1ccccc1	> 100 µM	> 100 µM	> 100 µM	> 100 µM	> 100 µM	> 100 µM	> 100 µM	> 100 µM	> 100 µM	> 100 µM	> 100 µM
